We go through two compounds from ChEMBL document CHEMBL5346903, “Discovery of novel and bioavailable histone deacetylases and cyclin-dependent kinases dual inhibitor to impair the stemness of leukemia cells” (Eur J Med Chem, 2023).

The target of data set [1] is CDK6/cyclin D1 (Homo sapiens) (UniProt P24385+Q00534). The data set can be described thus: Inhibition of CDK6/cyclinD1 (unknown origin) at 100 nM preincubated for 20 mins followed by [gamma-33P]ATP addition measured after 120 mins in presence of ATP by Hot-SpotSM kinase assay relative to control. It is filed as protein-complex assay. To be noted: time 140.0 min.
The target of data set [2] is Histone deacetylase 3 (Homo sapiens, UniProt O15379). Description: Inhibition of recombinant human HDAC3 using HDAC substrate incubated for 30 mins by fluorescence based assay.
Data set [3] in a line: Clearance in Sprague-Dawley rat at 5 mg/kg, iv measured upto 6 hrs by LC/MS-MS analysis. In kind it is ADME, organism-based. To be noted: in vivo.
The test system of data set [4] is HL-60. The data set can be described thus: Downregulation of Pol-II S5 level in human HL-60 cells incubated for 6 hrs by Western blot analysis. In kind it is functional, cell-based. To be noted: dose <= 1000.0 nM. A general note: In western blotting, separated proteins are transferred to a membrane and probed.
The target in data set [5] is Cyclin-dependent kinase 5/CDK5 activator 1 (Homo sapiens) (UniProt Q00535+Q15078). The data set can be described thus: Inhibition of CDK5/p35NCK (unknown origin) at 100 nM preincubated for 20 mins followed by [gamma-33P]ATP addition measured after 120 mins in presence of ATP by Hot-SpotSM kinase assay relative to control. In kind it is protein-complex assay. Conditions: time 140.0 min.

Data set [6] deals with U-937. The data set can be described thus: Induction of differentiation in human U-937 cells assessed as increase in CD11b positive cells at 0.6 uM incubated for 48 hrs by FITC staining based flow cytometry (reference value: […] %). In kind it is functional. A general note: A flow cytometer gives signals particle by particle.
Data set [7] relates to U-937. The data set can be described thus: Induction of apoptosis in human U-937 cells assessed as necrotic cells at 0.6 uM incubated for 48 hrs by annexin V-FITC/PI satining based flow cytometry (reference value: 0.102 %). In kind it is functional.

Sequence of Histone deacetylase 3 (O15379 whole entry): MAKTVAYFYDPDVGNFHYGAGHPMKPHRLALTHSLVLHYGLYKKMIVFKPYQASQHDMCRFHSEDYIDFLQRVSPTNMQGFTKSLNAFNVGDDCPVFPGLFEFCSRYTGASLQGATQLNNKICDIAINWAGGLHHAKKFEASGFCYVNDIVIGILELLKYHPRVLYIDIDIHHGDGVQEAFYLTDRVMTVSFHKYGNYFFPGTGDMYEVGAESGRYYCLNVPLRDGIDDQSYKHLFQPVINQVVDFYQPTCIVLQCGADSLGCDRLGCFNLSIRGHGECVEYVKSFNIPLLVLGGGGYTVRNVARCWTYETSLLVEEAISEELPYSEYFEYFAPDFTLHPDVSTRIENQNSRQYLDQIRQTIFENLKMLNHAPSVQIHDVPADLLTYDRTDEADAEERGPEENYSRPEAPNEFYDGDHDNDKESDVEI
Sequence of Cyclin-dependent kinase 5/CDK5 activator 1 (Homo sapiens) (Q00535 whole entry): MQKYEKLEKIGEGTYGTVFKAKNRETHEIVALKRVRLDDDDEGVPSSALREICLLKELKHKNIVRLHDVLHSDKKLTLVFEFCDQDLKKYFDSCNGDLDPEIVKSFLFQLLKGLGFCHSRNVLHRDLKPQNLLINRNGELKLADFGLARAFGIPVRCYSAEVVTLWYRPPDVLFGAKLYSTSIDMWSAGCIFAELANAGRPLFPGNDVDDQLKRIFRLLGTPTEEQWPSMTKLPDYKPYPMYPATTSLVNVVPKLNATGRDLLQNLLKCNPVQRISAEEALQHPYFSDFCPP
Sequence of Cyclin-dependent kinase 5/CDK5 activator 1 (Homo sapiens) (Q15078 99-307 partner limits assumed): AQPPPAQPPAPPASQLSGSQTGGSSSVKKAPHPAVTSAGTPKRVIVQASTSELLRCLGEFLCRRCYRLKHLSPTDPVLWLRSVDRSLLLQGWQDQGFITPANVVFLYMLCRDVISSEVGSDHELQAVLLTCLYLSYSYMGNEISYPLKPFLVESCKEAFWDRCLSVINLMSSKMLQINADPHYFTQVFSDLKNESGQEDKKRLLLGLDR

What is called inhibition is the share of the control response that was lost under treatment. As usually defined, the IC50 is the concentration that inhibits the measured activity by half. For orientation: clearance means a measure of how efficiently the substance is removed, as volume per time. Low readings indicate inefficient removal, high ones efficient removal. As to `Nc1ccccc1NC(=O)c1ccc(NC(=O)c2n[nH]cc2NC(=O)c2c(Cl)cccc2Cl)cc1`, the inhibition in data set [1] was 58.2%; in data set [5], 90.7%. Besides, the 50% inhibitory concentration (IC50) in data set [2] was found to be 40.4 nM. This compound showed a clearance in data set [3] of 88.5 mL/min/kg. The Activity result in data set [4] is “Dose-Dependent Effect”.
Regarding `Nc1cc(F)ccc1NC(=O)c1ccc(CNC(=O)/C=C/c2cccnc2)cc1` [TUCIDINOSTAT], the Activity is 4.06% in data set [6] and 0.072% in data set [7].
